Laboratory results from article PMC9811519 (RSC Chemical Biology, 2022).
Where a SMILES comes first, the peptide text is derived from it. The star is where a group is joined. X1 = O=C(O)CN(CCN(CC(=O)O)CC(=O)O)CCN(CC(=O)O)CC(=O)NCCN1C(=O)CC(*)C1=O; Myristoyl = CCCCCCCCCCCCCC(=O)*

Tests used:
[1] = system: 5T33 murine myeloma cells; assay: Efflux / retention of indium-111 by radiolabelled cells; format: cell-based; details: 5T33 cells washed after radiolabelling, γ-counter, SD of 3 biological replicates
Method: To measure efflux, cells were washed after radiolabelling and re-incubated in fresh growth medium for 2–20 h.
(§1) After cell labelling, cells were washed twice with PBS and 300 μL of fresh growth media was added. Uptake efficiency was quantified at this time-point by measuring pellet and supernatant in the γ-counter. At 2, 5 and 20 h after addition of fresh media, cells were washed twice and activity in both the supernatant (original supernatant and washes) and pellet was measured using a γ-counter. Efflux was quantified as the activity of the supernatant divided by the total activity (supernatant + pellet). Cell viability was assessed prior to radiolabelling and at each time point by trypan blue exclusion.[54]

[2] = system: 5T33 murine myeloma cells; assay: Comparative cell uptake (cell radiolabelling yield), 10^5 cells, 2 MBq; format: cell-based
Method: Cell pellets were obtained by centrifugation, washed and gamma-counted.
as §1

[3] = system: 5T33 murine myeloma cells; assay: Cell viability, trypan blue exclusion assay
Method: Cell viability was assessed using a trypan blue exclusion assay (Fig. 2(d) and (e)).
as §1

NSG male mice = assay: SPECT/CT imaging and ex vivo biodistribution; format: in vivo, mouse
Method: A SPECT/CT scan was acquired for 2 h immediately after injection (Fig. 3(a)).
Animal imaging studies were ethically reviewed by an Animal Welfare & Ethical Review Board at King's College London and carried out in accordance with the Animals (Scientific Procedures) Act 1986 (ASPA) UK Home Office regulations governing animal experimentation. […] Animals were maintained under isoflurane inhalation anaesthesia (2– 2.5% Isoflurane in air) for 2 h post-injection. […] The whole body SPECT scan time was 30 min × 4, (conducted sequentially) with a frame time of 40 s (using a 4-head scanner with 4 × 9 [1.4 mm] pinhole collimators in helical scanning mode) followed by a helical CT (45 kVP X-ray source, 1000 ms exposure time in 180 projections over 7.5 min). After this, animals were allowed to recover. SPECT/CT scans were acquired again, 1 day PI, after which all animals were culled (by increasing the dose of anaesthesia followed by cervical dislocation to confirm death) and organs/tissues harvested, weighed and radioactivity counted using a gamma counter. SPECT/CT images were reconstructed in a 256 × 256 matrix using HiSPECT (ScivisGmbH), a reconstruction software package and visualised and quantified using VivoQuant v.3.0 software (InVicro LLC., Boston, USA).

SMILES: [111In+3].[O-]c1cccc2cccnc12.[O-]c1cccc2cccnc12.[O-]c1cccc2cccnc12 [[^111In]In-(oxine)3]
- Indium-111 remaining associated with cells ([1]; 2 h after re-incubation in fresh growth medium): 76.0 ± 5.1%
- Indium-111 remaining associated with cells ([1]; 20 h after re-incubation in fresh growth medium): 46.0 ± 9.6%
- Cell radiolabelling yield ([2]; 1 × 10^5 5T33 cells in 200 μL, 2 MBq, 37 °C, DTPA-CTP tracer 3 h in serum-containing media, oxine tracer 30 min in serum-free media, washed, γ-counted, SD of 3 biological replicates): 20.6 ± 6.1 %AR
- Average radioactivity per cell ([2]; 1 × 10^5 5T33 cells, 2 MBq added radioactivity, corresponds to the cell radiolabelling yield): 4.1 ± 1.0 Bq per cell
- Cells viable after radiolabelling ([3]; 5T33 cells, 20 h after radiolabelling, trypan blue exclusion, prior to radiolabelling 89 ± 4% (DTPA-CTP group) and 96 ± 0.3% (oxine group), 3 biological replicates): 74 ± 6%

SMILES: CCCCCCCCCCCCCC(=O)NCCCC[C@H](NC(=O)CCCCCCCCCCCCC)C(=O)N[C@@H](CO)C(=O)N[C@@H](CO)C(=O)N[C@@H](CCCCN)C(=O)N[C@@H](CO)C(=O)N1CCC[C@H]1C(=O)N[C@@H](CO)C(=O)N[C@@H](CCCCN)C(=O)N[C@@H](CCCCN)C(=O)N[C@@H](CC(=O)O)C(=O)N[C@@H](CC(=O)O)C(=O)N[C@@H](CCCCN)C(=O)N[C@@H](CCCCN)C(=O)N1CCC[C@H]1C(=O)NCC(=O)N[C@@H](CC(=O)O)C(=O)N[C@@H](CSC1CC(=O)N(CCNC(=O)CN(CCN(CCN(CC(=O)O)CC(=O)O)CC(=O)O)CC(=O)O)C1=O)C(=O)O (some centres unmarked) [[^111In]In-DTPA-CTP, metal not drawn] (Myristoyl-K(Myristoyl)SSKSPSKKDDKKPGDC(X1)-OH)
- Localisation of indium-111 activity by SPECT/CT (NSG male mice; NSG male mice, intravenous via tail vein, 0–2 h PI, one animal per group scanned): indium-111 activity in the blood pool and liver
- Time to dissociation from cell membranes post-administration of cells (NSG male mice; [^111In]In-DTPA-CTP-labelled 5T33 cells, intravenous, NSG mice, inferred from SPECT): 1 to 2 h
- Cells viable after radiolabelling ([3]; 20 h): 88 ± 2%
